US8815590B2, “Composition and method for differentiation of human embryonic stem cells” (Stem Cells for Safer Medicines Limited, priority 2009, dated 2014)

Key:
[1] = test system: GSK-3; experiment: Phospho-β-catenin immunoblot and TOPFlash luciferase reporter assay in human ESCs; assay type: cell-based; details: 30 min (immunoblot) or 24 hr (TOPFlash)
Experimental: (A) ESCs [SHEF3] were cultured on MEFs or on Matrigel® in mTeSR1® media and treated with BIO or 1M for 30 min. Protein extracts were prepared and immunoblotting was performed using antibodies detecting the phosphorylated form of […]. The same immunoblot in each case was reprobed for total β-catenin to assess loading. (B) TOPFlash luciferase reporter assay of ESCs [SHEF1] treated for 24 hr with BIO or 1M at the indicated concentrations. Luciferase activity is expressed as a fold increase in activation compared with the normalised TOPFlash luciferase activity in untreated (Con) cells. Data represent the mean+/−SEM of 3 independent experiments.
Cell lysates (20 μg) were prepared, separated by SDS-PAGE and transferred to nitrocellulose as described previously (Welham et al., 1994). […] Images were captured and analysed using the ImageQuant RT ECL system (GE Healthcare). […]
The TOPFlash luciferase reporter plasmid (containing four consensus TCF binding sites upstream of the c-fos minimal promoter, driving expression of a firefly luciferase reporter) and its negative control plasmid FOPFlash (containing four mutant TCF binding sites) were provided by Dr C. […] Cell extracts were prepared and firefly and Renilla luciferase activities were determined using the dual-luciferase reporter assay system according to the manufacturer's instructions (Promega). […]

[2] = test system: ESCs [SHEF1]; experiment: Flow cytometry of the DE marker CXCR4; assay type: cell-based, human; details: 2 μM 1M, 100 ng/ml Activin A, alone or in combination, 5 days
Experimental: (A) RNA was extracted from ESCs [SHEF1] cultured for 7 days in the presence of 2 μM 1M for the days indicated. RT-PCR analyses were performed using primers selective for the genes indicated. (B) ESCs [SHEF1] were treated with 2 μM 1M alone or in combination with 10 μM SB43125 (S) for the days indicated and RT-PCR performed on the extracted RNA. (C) ESCs [SHEF3] were treated with 1M alone or in combination with 100 ng/ml Activin A (A) for the days indicated and RT-PCR performed. (D). ESCs [SHEF1] were treated with 2 μM 1M, or 100 ng/ml ActivinA (A) alone or in combination with 1M for 5 days. Expression of the endoderm markers FoxA2 and HNF4α was analysed by immunofluorescence. The number of percent positive cells averaged from 3 fields of view +/−SD are indicated. Scale bar represents 50 μm. (E) ESCs [SHEF1] were treated with 2 μM 1M, or 100 ng/ml ActivinA (A) alone or in combination with 1M for 5 days. Expression of the DE marker CXCR4 was alaysed by flow cytometry.
ESCs were trypsinised (0.05% Trypsin-EDTA) for 10 minutes at 37° C. and resuspended in PBS containing 2% (v/v) FBS (FBS/PBS). […] Flow cytometry was performed using a FACSCanto cytometer (Becton Dickenson) and the data were analysed with FACSDiva software. […]

[3] = test system: definitive endoderm derived from human ESCs; experiment: Differentiation of chemically induced DE to hepatocyte-like cells; assay type: cell-based; details: DE induction with compound, then HGF/FGF4, then HGF/FGF4/OSM/Dex
Excerpt: (A) Schematic representation of the differentiation protocol. (B) Images of differentiated cells at stage II (d14) and stage III (d25). (C) RT-PCR expression analyses of RNA prepared from cells at the indicated stages of differentiation, using primers specific to the genes indicated. RNA extracted from human liver was used as a positive control. β-ACTIN was used as a housekeeping gene. (D) Expression of FoxA2 and the early hepatic markers HNF4α, AFP and TTR in cells at stage II and stage III of differentiation were analyzed by immunofluorescence. Scale bar represents 50 μm. (E) Media (1 μl) from stage III (d25) cells, conditioned for 48 hours, and from a media alone (MA) control were analysed by immunoblotting with an antibody to AFP. Purified AFP and media conditioned from HUH7 cells were run as controls. (F) ELISA assay for human Albumin from stage III (d25) media. (G) Differentiation of BIO-derived DE cells to hepatocyte-like cells. SHEF3 ESCs were treated with 2 μM BIO for 5 days to induce differentiation to the DE. ESCs were then cultured under hepatic induction and maturation conditions as outlined in the Experimental Procedures and FIG. 5A. Expression of FOXA2 and the early hepatic markers HNF4α, AFP and TTR in ESCs at stage II and stage III of differentiation were analyzed by immunofluorescence. Scale bar represents 50 μm. […]

Structure (SMILES): O=C1NC(=O)C2=C1c1cn(c3ccccc13)CCOCCOCCOCCOCCn1cc2c2ccccc21 [1M]
- GSK-3-mediated signaling (β-catenin phosphorylation, TOPFlash activity) [1]: inhibits GSK-3-mediated signaling
- CXCR4 expression by flow cytometry [2]: 53.0%
- Potential of compound-derived DE to form hepatocyte-like cells [3]: has the potential to differentiate into cells with hepatocyte characteristics
